Where only a bound is given, the exact number is not on record here.

The assay has as its system HCV2aChLuc virus. Put plainly: In vitro HCVcc entry assay: HCV2aChLuc virus infection of Huh7 cells, Renilla luciferase read-out. It is filed as cell-based, HCV genotype 2a. Conditions: Hepatitis C virus, Huh-7, read-out: Activity class (IC50), tested according to the method of Example 3.

As a reminder, the IC50 is the concentration needed to halve the response being measured. `O=C(Nc1cc(C(F)(F)F)ccc1Cl)C(=O)c1ccc(OCCN2CCOCC2)c2ccccc12` [Compound 82]: the IC50 was over 500 nM.

Regarding `O=C(Nc1cc(C(F)(F)F)ccc1Br)C(=O)c1ccc(OCCN2CCOCC2)c2ccccc12` [Compound 83], the half-inhibitory concentration (IC50) was over 500 nM.

Regarding `CCCS(=O)(=O)Nc1cc(C(C)(C)C)cc(NC(=O)C(=O)c2ccc(OCC(=O)c3ccc(OC)cc3)c3ccccc23)c1OC` [Compound 84], the IC50 was over 500 nM.

Take `COc1c(NC(=O)C(=O)c2ccc(OCC(N)=O)c3ccccc23)cc(C(C)(C)C)cc1NS(C)(=O)=O` [Compound 85]: the IC50 was over 500 nM.

For `COCCOCCOc1ccc(C(=O)C(=O)Nc2cc(C(C)(C)C)cc(NS(C)(=O)=O)c2OC)c2ccccc12` [Compound 86], the IC50 was over 500 nM.

As for `CCCS(=O)(=O)Nc1cc(C(C)(C)C)cc(NC(=O)C(=O)c2ccc(N3CCC(CC(=O)OCC)CC3)c3ccccc23)c1OC` [Compound 87], the IC50 was over 500 nM.

Take `CC(C)(C)c1cc(C#N)cc(NC(=O)C(=O)c2ccc(Br)c3ccccc23)c1` [Compound 88]: the IC50 is over 500 nM.

`COc1c(Br)cc(C(C)(C)C)cc1NC(=O)C(=O)c1ccc(OCCN2CCOCC2)c2ccccc12` [Compound 89]: the IC50 lay in the range of 5 to 500 nM.

Regarding `O=C(Nc1ccc2c(c1)OCCO2)C(=O)c1ccc(OCCN2CCOCC2)c2ccccc12` [Compound 90], the IC50 is over 500 nM.

As for `COc1c(NC(=O)C(=O)c2ccc(OCCN3CCOCC3)c3ccccc23)cc(C(C)(C)C)cc1-c1nnn[nH]1` [Compound 91], the IC50 is over 500 nM.

Take `COc1c(NC(=O)C(=O)c2ccc(OCC[N+]3([O-])CCOCC3)c3ccccc23)cc(C(C)(C)C)cc1NS(C)(=O)=O` [Compound 92]: the IC50 was in the range of 5 to 500 nM.

For `COc1c(NC(=O)C(=O)c2ccc(OCCN(CCOCc3ccccc3)CCOCc3ccccc3)c3ccccc23)cc(C(C)(C)C)cc1NS(C)(=O)=O` [Compound 93], the half-maximal inhibitory concentration (IC50) was over 500 nM.

On to `COc1c(C#N)cc(C(C)(C)C)cc1NC(=O)C(=O)c1ccc(-c2ccc(NCCC(C)(C)C)nc2)c2ccccc12` [Compound 94], for which the IC50 is over 500 nM.

Take `COc1c(C#N)cc(C(C)(C)C)cc1NC(=O)C(=O)c1ccc(Nc2ccnc(N3CCCC3)n2)c2ccccc12` [Compound 95]: the IC50 was over 500 nM.

For the molecule `COc1c(NC(=O)C(=O)c2ccc(OCCN3CC(C)(C)OC(C)(C)C3)c3ccccc23)cc(C(C)(C)C)cc1NS(C)(=O)=O` [Compound 96], the IC50 lay in the range of 5 to 500 nM.

For `COc1c(NC(=O)C(=O)c2ccc(OCCN3CCOCC3)c3ccccc23)cc(C(C)(C)C)cc1C(=O)N1CCNCC1` [Compound 97], the IC50 was over 500 nM.

For the molecule `COc1c(NC(=O)C(=O)c2ccc(OCCN3CCOCC3)c3ccccc23)cc(C(C)(C)C)cc1C(=O)N1CCN(C)CC1` [Compound 98], the IC50 was over 500 nM.

For the molecule `COc1c(NC(=O)C(=O)c2ccc(OCCN3CCOCC3)c3ccccc23)cc(C(C)(C)C)cc1C(=O)N1CCN(C(C)C)CC1` [Compound 99], the IC50 fell in the range of 5 to 500 nM.

For the molecule `COc1c(NC(=O)C(=O)c2ccc(OCCN3CCOCC3)c3ccccc23)cc(C(C)(C)C)cc1C(=O)N1CCN(CC2CC2)CC1` [Compound 100], the IC50 was over 500 nM.

On to `COc1c(NC(=O)C(=O)c2ccc(OCCN3CCOCC3)c3ccccc23)cc(C(C)(C)C)cc1C(=O)N1CCN(CCO)CC1` [Compound 101], for which the half-maximal inhibitory concentration (IC50) is over 500 nM.

Consider `COc1c(NC(=O)C(=O)c2ccc(OCCN3CCOCC3)c3ccccc23)cc(C(C)(C)C)cc1C(=O)N1CCCN(C)CC1` [Compound 102], for which the IC50 was over 500 nM.

As to `COc1c(NC(=O)C(=O)c2ccc(OCCN3CCOCC3)c3ccccc23)cc(C(C)(C)C)cc1C(=O)NC1CCN(C)CC1` [Compound 103], the IC50 is over 500 nM.

`COc1c(NC(=O)C(=O)c2ccc(OCCN3CCOCC3)c3ccccc23)cc(C(C)(C)C)cc1C(=O)N1CC2CCC(C1)N2` [Compound 104]: the IC50 was over 500 nM.

With `COc1c(NC(=O)C(=O)c2ccc(OCCN3CCOCC3)c3ccccc23)cc(C(C)(C)C)cc1C(=O)NC1CCNCC1` [Compound 105], the IC50 was over 500 nM.

As for `COc1c(NC(=O)C(=O)c2ccc(OCCN3CCOCC3)c3ccccc23)cc(C(C)(C)C)cc1C(=O)N1CCCCC1CN(C)C` (stereo not drawn) [Compound 106], the IC50 was over 500 nM.

Consider `COc1c(NC(=O)C(=O)c2ccc(OCCN3CCOCC3)c3ccccc23)cc(C(C)(C)C)cc1-n1ccnc1` [Compound 107], for which the IC50 lay within 5 to 500 nM.

Turning to `COc1c(NC(=O)C(=O)c2ccc(OCCN3CCOCC3)c3ccccc23)cc(C(C)(C)C)cc1-n1ccnn1` [Compound 108], the IC50 lay within 5 to 500 nM.

Consider `CC(C)(C)c1cc(NC(=O)C(=O)c2ccc(OCCN3CCOCC3)c3ccccc23)cc(NS(C)(=O)=O)c1` [Compound 109], for which the IC50 is 5 to 500 nM.

`COc1c(NC(=O)C(=O)c2ccc(OCCN3CCOCC3)c3ccccc23)cccc1NS(C)(=O)=O` [Compound 110]: the IC50 is over 500 nM.

Take `COc1c(NC(=O)C(=O)c2ccc(OCCN3CCCCC3)c3ccccc23)cc(C(C)(C)C)cc1NS(C)(=O)=O` [Compound 111]: the IC50 was in the range of 5 to 500 nM.

As to `Cc1ccc(Cl)cc1NC(=O)C(=O)c1ccc(OCCN2CCOCC2)c2ccccc12` [Compound 112], the IC50 is over 500 nM.

As to `O=C(Nc1n[nH]c2ccccc12)C(=O)c1ccc(OCCN2CCOCC2)c2ccccc12` [Compound 113], the IC50 is over 500 nM.

For the molecule `O=C(NC1Cc2ccccc2C1)C(=O)c1ccc(OCCN2CCOCC2)c2ccccc12` [Compound 114], the IC50 is over 500 nM.

For `O=C(NC1CCc2ccccc21)C(=O)c1ccc(OCCN2CCOCC2)c2ccccc12` (stereo not drawn) [Compound 115], the IC50 is over 500 nM.

In the case of `COc1c(NC(=O)C(=O)c2ccc(OCCN3CCOCC3)c3ccccc23)cc(C(F)(F)F)cc1NS(C)(=O)=O` [Compound 116], the IC50 is over 500 nM.

For `COc1c(NC(=O)C(=O)c2ccc(OCCN3CCOCC3)c3ccccc23)cc(C(C)(C)C)cc1N(CCN1CCOCC1)S(C)(=O)=O` [Compound 117], the IC50 is over 500 nM.

As to `O=C(Nc1nc(Cl)ccc1[N+](=O)[O-])C(=O)c1ccc(OCCN2CCOCC2)c2ccccc12` [Compound 118], the IC50 was over 500 nM.

Regarding `O=C(Nc1cc(Br)cnc1Cl)C(=O)c1ccc(OCCN2CCOCC2)c2ccccc12` [Compound 119], the IC50 was in the range of 5 to 500 nM.

Turning to `COc1c(NC(=O)CCCCC2SCC3NC(=O)NC32)cc(C(C)(C)C)cc1NC(=O)C(=O)c1ccc(OCCN2CCOCC2)c2ccccc12` (stereo not drawn) [Compound 120], the IC50 lay within 5 to 500 nM.

As to `COc1ccc(I)cc1NC(=O)C(=O)c1ccc(OCCN2CCOCC2)c2ccccc12` [Compound 121], the IC50 fell in the range of 5 to 500 nM.

For `CC(C)(C)c1ccc(O)c(NC(=O)C(=O)c2ccc(OCCN3CCOCC3)c3ccccc23)c1` [Compound 122], the 50% inhibitory concentration (IC50) was in the range of 5 to 500 nM.

Consider `COc1c(NC(=O)C(=O)c2ccc(OCCCS(=O)(=O)N(C)C)c3ccccc23)cc(C(C)(C)C)cc1NS(C)(=O)=O` [Compound 123], for which the IC50 fell in the range of 5 to 500 nM.

As to `COc1c(NC(=O)C(=O)c2ccc(Nc3ccnc(N4CCOCC4)n3)c3ccccc23)cc(C(C)(C)C)cc1C(N)=O` [Compound 124], the IC50 was over 500 nM.

With `COc1c(NC(=O)C(=O)c2ccc(-c3ccc(N(C)C)nc3)c3ccccc23)cc(C(C)(C)C)cc1NS(C)(=O)=O` [Compound 125], the IC50 was over 500 nM.

Regarding `COc1ccc(C(C)(C)C)cc1NC(=O)C(=O)c1ccc(-c2ccc(N(C)C)nc2)c2ccccc12` [Compound 126], the IC50 is over 500 nM.

(Values after patent publication US20110117055A1, “Methods of Treating Hepatitis C Virus with Oxoacetamide Compounds” (priority 2009, published 2011).)
